Measured values from US5434053A, “Detection of antibiotics” (Gist-Brocades N.V., priority 1992, dated 1995).

Tests used:
[1] = system: anti-gentamycin-rabbit antibody; test: Antibiotic residue test for gentamycin in milk (sequential assay; antibody/HRPO-protein A conjugate, immobilized gentamycin-spacer-BSA); format: binding; settings: for reader units expressed in %: measured at 650 nanometer
Procedure: The gentamycin assay is in general developed with the same basics as the β-lactam-assay. We will therefore give in this example the same outline as the β-lactam assay of Example 1 with description of differences.
A commercial anti-gentamycin-rabbit antibody is obtained from Biodesign International, Kennebunkport, Me., U.S.A. The anti-gentamycin-rabbit antiserum is absorbed to remove the bovine serum albumin (BSA) carrier antibodies. A solution containing 10 mg/ml sulfosuccinicmidylsuberate-BSA and 2 mg of unreacted BSA is mixed with the raw antiserum in the ratio of 10 to 1. This removes all detectable reactivity with BSA.
Absorbed anti-gentamycin antiserum is reacted with horseradish peroxidase labelled Staphylococcus aureus protein A to form an antibiotic binding protein enzyme conjugate. An optimal ratio of antibody to protein A is determined by forming the assay with checkerboard titrations of the two components diluted in phosphate buffered saline containing 1% BSA.
In this example gentamycin is used for conjugation to Bovine Serum Albumin (BSA). A spacer between gentamycin and the BSA is used to obtain the best affinity and specificity. The spacer is the same as used in Example 1.
As described in the β-lactam test, the gentamycin-spacer-protein conjugate is coated to a solid phase.
The same test method as described in Example 1 for the β-lactam test can be used for the gentamycin test. However, this test uses all incubations at a temperature of 20° C.

[2] = system: antibiotic binding protein; test: Antibiotic residue test for β-lactams in milk (sequential assay; HRPO-labelled antibiotic binding protein, immobilized 7ACA-spacer-BSA); set-up: species or system Bacillus stearothermophilus; settings: for reader units expressed in %: measured at 650 nanometer; for sensitivity ppb: test according to Example 1, other β-lactams
Procedure: A grown culture of an antibiotic sensitive microorganism in this example Bacillus stearothermophilus (continuous culture art. #108 Porton Products Ltd, UK) was lysed overnight at 4° C. with lysozyme, DNAse and triton X-100 in 0.1M phosphate pH 7.0. The lysate was centrifuged for 30 minutes at approximately 1600×g (4° C.). After centrifugation the supernatant was mixed with an antibiotic affinity gel matrix, for example to prepare a 7-aminocephalosporanic acid (7ACA) affinity gel matrix the following method was used.
The 7ACA-affigel and the supernatant of the lysed culture was mixed for 3 hours at 20° C. gently on a shaker. The gel was washed six times with 0.1M phosphate+1M NaCl pH 7.0. For each wash was used 500 ml.
In this example horse-radish peroxidase (HRPO) is used. 1 mg HRPO (suitable for labelling) in 1 ml of distilled water (d.i.-water) and 0.2 ml 0.1M Na-periodate was mixed 20 minutes at 20° C. and dialysed overnight at 4° C. against 0.001M Na-acetate pH 4.4. This dialysate was adjusted to pH 9.0-9.6 by adding 25 μl of 0.1M carbonate. Directly hereafter 1 mg abp (Pierce protein assay) was added into the dialysate. The mixture was gently shaken for 2 hours at room temperature. Thereafter 150 μl of 4 mg Na-borohydride/ml d.i.-water was added to the mixture, this was incubated for 2 hours at 4° C.
40 mg of 7ACA was added to 4 ml of 50 mM Hepes (pH 7.5) solution. After dissolving the pH was adjusted to pH 7.0 with 1N NaOH. Hereafter 20 mg BSA and 40 mg Bis(sulfosuccinicmidyl)suberate (spacer) and an extra 2 ml of 50 mM Hepes solution was added. The mixture was gently shaken for 45 minutes at 20° C.
0.125 ml dialysate (7ACA-spacer-BSA conjugate) was added to 500 ml carbonate pH 9.6. 0.5 ml of this solution was added to the polystyrene star tubes (NUNC MAXISORB®). Tubes were covered and incubated overnight at 4° C. After incubation the β-lactam spacer protein conjugate dilution was removed from the tubes and 2 ml 0.05M phosphate+0.5% BSA+2% sucrose+0.1M glycine pH 7.2 was added to each tube. After 1 hour at 20° C. the tubes were emptied and dried for 48 hours at 22°-27° C. with less than 30% humidity. Dried tubes are stable for at least 1 year at 4° C.
0.2 ml of milk sample and 0,2 ml of a diluted abp-enzyme conjugate was added to an empty reaction ampoule. After incubation for 2 minutes at 64° C. the contents of the tube was transferred to the coated tube. After the second incubation of 2 minutes at 64° C. the contents of the coated tube was dumped into the sink and the tubes were washed three times with 50×diluted wash solution by filling the tubes, dumping the contents into the sink and removing residuals by tapping on absorbent paper. After the wash, 0.5 ml of TM-blue® colour-substrate was added into the tube. This incubation for 4 minutes at room temperature was stopped by adding 0.5 ml of stop solution (1.5% NaF). The colour development at 650 nm was compared with an antibiotic standard tested along with the sample.

Q: For gentamycin [gentamycine], which “reader units expressed in %” value ([1]; 2.5 ppb gentamycine present in sample) is on record?
A: The value was 55%.

Q: And the “reader units expressed in %” value ([1]; 5 ppb gentamycine present in sample)?
A: Its value is 39%.

Q: And the “reader units expressed in %” value ([1]; 10 ppb gentamycine present in sample)?
A: The value was 31%.

Q: What about the “reader units expressed in %” value ([1]; 20 ppb gentamycine present in sample) of the same molecule?
A: Its value is 23%.

Q: What about the “reader units expressed in %” value ([1]; 30 ppb gentamycine present in sample) of the same molecule?
A: The value was 20%.

Q: And the “reader units expressed in %” value ([1]; 36 ppb gentamycine present in sample)?
A: Its value is 18%.

Q: And the “detectable gentamycin residue, can be lowered to (referred to Table III)” value ([1]; milk, all incubations at 20° C.)?
A: The value was 2.5 ppb.

Q: And the “lowest detectable gentamycin residue” value ([1]; milk, total incubation time 8 minutes, all incubations at 20° C.)?
A: The value was 30 ppb.

Q: For `CC1(C)S[C@@H]2[C@H](NC(=O)Cc3ccccc3)C(=O)N2[C@H]1C(=O)O` [Pen. G, benzylpenicillin], which “reader units expressed in %” value ([2]; 1.25 ppb Pen. G present in sample, milk) is on record?
A: The value was 96%.

Q: And the “reader units expressed in %” value ([2]; 2 ppb Pen. G present in sample, milk)?
A: The value was 69%.

Q: What about the “reader units expressed in %” value ([2]; 3 ppb Pen. G present in sample, milk) of the same molecule?
A: Its value is 65%.

Q: What about the “reader units expressed in %” value ([2]; 4 ppb Pen. G present in sample, milk) of the same molecule?
A: The value was 51%.

Q: And the “reader units expressed in %” value ([2]; 5 ppb Pen. G present in sample, milk)?
A: The value was 47%.

Q: What about the “reader units expressed in %” value ([2]; 10 ppb Pen. G present in sample, milk) of the same molecule?
A: The value was 32%.

Q: What about the “lowest detectable benzylpenicillin residue (test sensitivity)” value ([2]; milk, total incubation time 8 minutes (test time not exceeding about 12 minutes)) of the same molecule?
A: Its value is 5 ppb.

Q: `CC1(C)S[C@@H]2[C@H](NC(=O)[C@H](N)c3ccc(O)cc3)C(=O)N2[C@H]1C(=O)O` [Amoxicillin] was tested. Which sensitivity ppb [2] did it give?
A: Its sensitivity ppb is 5 ppb.

Q: How did the sensitivity ppb [2] turn out when `CC1(C)S[C@@H]2[C@H](NC(=O)[C@H](N)c3ccccc3)C(=O)N2[C@H]1C(=O)O` [Ampicillin] was run?
A: Its sensitivity ppb is 10 ppb.

Q: `CC(=O)OCC1=C(C(=O)O)N2C(=O)[C@@H](NC(=O)CSc3ccncc3)[C@H]2SC1` [Cephapirin] was tested. Which sensitivity ppb [2] did it give?
A: Its sensitivity ppb is 5 ppb.

Q: `CO/N=C(\C(=O)N[C@@H]1C(=O)N2C(C(=O)O)=C(CSC(=O)c3ccco3)CS[C@H]12)c1csc(N)n1` [Ceftiofur] was tested. Which sensitivity ppb [2] did it give?
A: Its sensitivity ppb is 5 ppb.
